Data set [1] deals with two-spotted spider mites (Tetranychus urticae). Briefly: Acaricidal test for two-spotted spider mites. It is filed as in vivo. The conditions noted are these: 500 ppm solution sprayed 2 ml/cup on larvae on kidney bean leaf discs; 25° C.; after 96 hours. How it is done:
[Test Example 1] Acaricidal Test For Two-spotted Spider Mites (Tetranychus urticae)
The leaves of kidney bean plants were punched into 3.0 cm-diameter discs, using a leaf punch, and put onto moistured filter paper in a 7 cm-diameter styrol cup. Ten larvae of two-spotted spider mites (Tetranychus urticae) were put to each leaf. A 5% emulsion (or 25% wettable powder) of a compound of the invention was diluted with water containing a spreading agent to give a 500 ppm solution of the compound. The solution was sprayed over each cup in an amount of 2 ml/cup, using a rotary sprinkler, and the cups were stored in a thermostatic chamber at 25° C. After 96 hours passed, the mites in each cup were observed, and mortality of the mites was determined according to the following equation. Each compound was tested in that manner for two groups of dishes.
Mortality (%)=[number of insect killed/(number of insect killed+number of living insect)]×100

For data set [2], the system named is citrus red mite (Panonychus citri). Briefly: Residual effect test for citrus red mite. The conditions noted are these: Table 4, spray solution 100 ppm, 48 hours. It is filed as in vivo. How it is done:
Residual Effect Test for Citrus Red Mite (Panonychus citri)
A 5% emulsion (or 25% wettable powder) of a compound of the invention was diluted with water containing a spreading agent to give a solution of the compound with prescribed concentration. The solution was sprayed over each orange planted in a pot in an amount of 250 ml/pot, using a rotary sprinkler, and the pot were left in the open air. After the prescribed days, the leaves of orange plants were punched into 3.0 cm-diameter discs, using a leaf punch, and put onto moistured filter paper in a 7 cm-diameter styrol cup. Ten larvae of citrus red mite (Panonychus citri) were put to each leaf. Then, the cups were stored in a thermostatic chamber at 25° C. After 48 hours passed, the mites in each cup were observed, and mortality of the mites was determined according to the same equation as in Test Example 1. Each compound was tested in that manner for four groups of dishes.
In the test, the following Compound A described in WO97/40009 was used as a comparative compound. [drawing 35]

Each structure is given as a SMILES string. Some results are limits rather than exact numbers.

`COc1ccccc1-n1nc(C)c(C(C#N)=C(OC(=O)C(C)(C)C)c2c(Cl)c(C)nn2C)n1` (mixture of isomers) [compound 62]: the mortality in data set [1] is not below 80%. For the compound `Cc1nn(-c2ccccc2)nc1/C(C#N)=C(\OC(=O)C(C)(C)C)c1c(C(F)(F)F)nn(C)c1Cl` [Compound A], the mortality at 100 ppm in data set [2] (2 days left in the open air after spraying) worked out at 17.5%; in data set [2] (4 days left in the open air after spraying), 40%.

Compound `Cc1nc(C)c(C(O)=C(C#N)c2nn(-c3ccccc3)nc2C)s1` [Compound No. 20, 3-(2,4-Dimethylthiazol-5-yl)-3-hydroxy-2-(5-methyl-2-phenyl-1,2,3-triazol4-yl)acrylonitrile] gave a melting point of 117 to 118 °C.

What is called mortality is the share of the test organisms that died. A word on the melting point: it is the temperature, or range, at which the solid turns liquid.

The record behind these values is US6642234B1, “Acrylonitrile compounds” (Nissan Chemical Industries, Ltd., priority 1998, dated 2003).
